Our source for the melting point values is a melting point compilation (Tetko et al.; mined from patent text by program, amines drawn as free bases though some values may be those of a salt).

As a reminder, the melting point is the temperature, or range, at which the solid turns liquid. In turn, `Oc1ccccc1C=C1c2ccccc2CCc2ccccc21` gave a melting point of 56.9 °C.

`O=S1(=O)NC(C2CCCCC2)Nc2ccc(S(=O)(=O)N3CCCCC3)cc21` (stereo not given) yielded a melting point of 262 to 264 °C.

Take `COc1ccc(N2C(=O)O[C@H](COC(=O)c3ccc([N+](=O)[O-])cc3)[C@@H]2C)cc1`: the melting point fell in the range of 138 to 140 °C.

In turn, `COC(C(=O)O)C(=O)Oc1cccc(-c2cn3c(n2)sc2ccccc23)c1` (stereo not given) showed a melting point of 110 to 113 °C.

On to `Cc1oc2cc(NS(C)(=O)=O)c(Oc3ccccc3)cc2c(=O)c1C(=O)O`, for which the melting point fell in the range of 238 to 241 °C.

In the case of `COCC1(C)CC(=O)c2cc(C#N)ccc2O1` (stereo not given), the melting point lay within 79 to 81 °C.

Compound `Nc1ccc2c(c1)C(=O)C1(CCOC1=O)S2` (stereo not given) returned a melting point of 187 to 190 °C.

For `O=C(O)c1ccc(C#Cc2ccc(O)c(C34CC5CC(CC(C5)C3)C4)c2)cc1`, the melting point was 254 to 255 °C.

For `CCCCCCCCC1(CCCCCCCC)c2cc(Br)ccc2-c2ccc(Br)cc21`, the melting point lay in the range of 52 to 54 °C.

As for `Cc1cc(O)c(O)cc1CC=Cc1ccccc1`, the melting point turned out to be 85 °C.

In the case of `CCC1(C)CC(O)CC(C)(C)N1OC(C)c1ccccc1` (stereo not given), the melting point lay in the range of 58 to 69 °C.

Consider `CC(C)=CCOc1ccc(OCC=C(C)C)c(C(=O)NCCc2ccncc2)c1`, for which the melting point lay in the range of 92.7 to 93.5 °C.

In turn, `Cc1cc(C(=O)NCc2cccc3c2C(=O)N(C2CCC(=O)NC2=O)C3=O)no1` (stereo not given) returned a melting point of 207 to 209 °C.

Compound `Nc1nc2ccccc2c2c1ncn2CCCCNC(=O)COc1ccc(C(=O)c2ccccc2)cc1` showed a melting point of 73 to 98 °C.

Compound `CC(C)(C)OC(=O)N1CCN(CC(=O)Nc2ccc(CC#N)cc2)CC1` had a melting point of 137 to 138 °C.

On to `O=C(O)c1nc2n(c(=O)c1OCc1ccccc1)CCOC2`, for which the melting point is 171 °C.

Compound `O=c1[nH]c(=O)n([C@H]2CO[C@H](CO)O2)cc1/C=C/Cl` yielded a melting point of 101 to 102 °C.

`Cc1ccc2nc(-c3ccc([N+](=O)[O-])cc3)cn2c1` had a melting point of 237 to 239 °C.

On to `CC(C)c1cc(Oc2ccc(Cl)cc2)nc(C(C)C)c1N=C=NC(C)(C)C`, for which the melting point lay within 46 to 55 °C.

Compound `CC(=O)NC[C@H]1CN(c2ccc3c(c2)CC(C)N3C(=O)CO)C(=O)O1` (stereo not given in full) had a melting point of 130 to 133 °C.

Consider `C=Cc1cn(-c2c(Cl)cc(C(F)(F)F)cc2Cl)nc1C#N`, for which the melting point was in the range of 75 to 76 °C.

For `COc1cc(C(F)(F)F)c2[nH]c3c(c2c1)CNCC3`, the melting point is 140 to 144 °C.

With `CCOc1csc(N)c1C#N`, the melting point was 145 to 146 °C.

Consider `CC(=O)NC(=CBr)C(=O)OC(C)(C)C`, for which the melting point fell in the range of 106 to 107 °C.

For `CC(C)(C)c1ccc(-c2c(Cl)c(CN3C(=O)CCC3=O)nc3sc4c(c23)CCN(Cc2ccccc2)C4)cc1`, the melting point was 198 to 199 °C.

As for `COc1ccc(C(=O)C2=C(c3ccccc3)c3ccc(OC)cc3S2=O)cc1` (stereo not given), the melting point was in the range of 191 to 192 °C.

Take `COc1cccc(CN2N=C(c3ccc(OC)c(OC)c3)[C@@H]3CCCC[C@@H]3C2=O)c1` (relative stereo): the melting point is 115 °C.

For the compound `NCCOc1cccc2c1ccn2S(=O)(=O)c1ccccc1`, the melting point was in the range of 71 to 73 °C.

As to `N#Cc1ccc(OCc2ccncc2)cc1OC(C(=O)O)c1ccccc1` (racemic), the melting point is 218 to 220 °C.

In turn, `Fc1ccc(C2CC(n3cncn3)c3ccccc3N2)cc1` (stereo not given) displayed a melting point of 184 to 186 °C.

For `O=c1nccc2sc3cc(-c4ccccc4)ccc3n12`, the melting point lay in the range of 196 to 197 °C.

In the case of `Cc1noc2cccc(OCC3CO3)c12` (stereo not given), the melting point lay within 51 to 53 °C.

Compound `CS(=O)(=O)Nc1ccc(CCc2n[nH]c3c2c(=O)n(-c2ccccc2)c2ncccc32)cc1` gave a melting point of 284 to 285 °C.

On to `Cc1c(NC(=O)CC(C)(C)C)c(C)c2c(c1-c1nccs1)OCC2c1ccc(C(C)C)cc1` (stereo not given), for which the melting point was in the range of 164 to 166 °C.

`CC(=O)OC1CCc2c(C#N)cccc21` (stereo not given) returned a melting point of 65 °C.

`O=CNc1ccc(F)c(Cl)c1` registered a melting point of 94 to 97 °C.

`C=CCOc1nc(N)nc(-c2ccccc2)c1-c1ccc(=O)n(C(C)C)n1` showed a melting point of 130 to 132 °C.

The compound `Cc1c(N2CC[C@H](CNC3CC3)C2)c(F)cc2c(=O)c(C(=O)O)cn([C@@H]3C[C@@H]3F)c12` yielded a melting point of 163 to 164 °C.

Turning to `CCn1nc2c(N)nc3ccccc3c2c1CC1(O)CCOCC1`, the melting point is 253 to 255 °C.

`CCNc1nc(=S)n(Cc2ccc(OC)c(OC3CCCC3)c2)c2nc[nH]c12` yielded a melting point of 72 to 77 °C.

For `O=C1COc2ccc(Br)cc2N1O`, the melting point was in the range of 201 to 204 °C.

`CCc1ncnc(NC2CCc3cc(OC)ccc3C2)c1Cl` (stereo not given) returned a melting point of 70 to 71 °C.

Take `O=C(Nc1cccnn1)N1CCN(c2nccc(-c3c(F)cccc3F)n2)CC1`: the melting point lay in the range of 228 to 229 °C.

In the case of `COc1ccc(-c2cc(C)c(N)c(C=O)c2)cn1`, the melting point lay in the range of 81 to 84 °C.

For the compound `O=S(=O)(Nc1ncnc(Cl)c1Cc1ccc2ccccc2c1)c1ccc(Cl)cc1`, the melting point was in the range of 197 to 199 °C.

For `COc1ccc(CNC(Nc2ccccc2)=C(C#N)C(=O)OC(C)(C)C)cc1`, the melting point is 158 to 159 °C.

The compound `Cc1nc(-n2ccc(O)cc2=O)sc1C(=O)NCc1ccncc1` registered a melting point of 275 to 278 °C.

For `Cc1c(C)c(OCC(=O)N2CCN(c3ccc(N=C(N)c4cccs4)cc3)CC2)c(C)c(C)c1O`, the melting point lay in the range of 210 to 212 °C.

Regarding `COCc1ccc(C(=O)O[C@H](CC(C)C)C(=O)O)o1`, the melting point lay in the range of 73 to 74 °C.

As for `CCOc1ccc(-c2ccc(O)c(C=O)c2)cc1`, the melting point lay in the range of 94 to 95 °C.

As to `Cc1ccc(-c2cn(C)cc(-c3cccc(C(F)(F)F)c3)c2=O)cc1`, the melting point lay within 154 to 156 °C.

In the case of `CON1CCC(C#N)(N(O)C(=O)Cc2cc(C)ccc2C)CC1`, the melting point was 153 to 156 °C.

For the compound `CCc1nc2c(C)cc(C)nc2n1Cc1ccc2nc(-c3ccccc3NS(=O)(=O)C(F)(F)F)ccc2c1`, the melting point came to 252 °C.

`O=C(O)c1ccc(COc2ccc3cc(-c4ccc(-c5ccccc5)n4Cc4ccc(C(F)(F)F)cc4)ccc3c2)c(C(=O)O)c1`: the melting point lay within 250 to 252 °C.

On to `Cc1cc(-c2nn(CC(C)C)c(=O)c(O)c2C)ccc1F`, for which the melting point lay in the range of 107 to 110 °C.

For the compound `CCC1(CC)CCNC1=O`, the melting point fell in the range of 52 to 53 °C.

For the compound `O=C(O)CCNc1cccc(Br)n1`, the melting point is 108 to 109 °C.

Compound `O=C(O)CCCCCCCCn1nc(-c2ccccc2)c(-c2ccccc2)cc1=O` yielded a melting point of 100 to 103 °C.

As for `CCc1cc(Nc2ccc(C(Cc3ccccc3)C(=O)O)cc2)n2nccc2n1` (stereo not given), the melting point was in the range of 195 to 197 °C.

`O=C(O)Cc1cc(-c2ccc(Cl)cc2)n(-c2ccc(OCc3ccc4ccccc4n3)cc2)n1` gave a melting point of 228 to 230 °C.

As to `COCOc1c(NC(=S)NCc2cccnc2)cc(OC)cc1C(C)(C)C`, the melting point fell in the range of 137 to 138 °C.

As for `O=c1[nH]c(=O)n2c3c(cccc13)CC2`, the melting point lay within 314 to 315 °C.

Take `COc1ccc(C(=O)NC2CCCCC2)c2c1OCC2CC(=O)O` (stereo not given): the melting point lay in the range of 246 to 247 °C.

Regarding `Cc1nc(N2CCc3ccccc3CC2)c(C#N)c(=O)n1CC#N`, the melting point is more than 200 °C.

With `COc1ccc(CC(=O)NC(NC(Cc2cccnc2C)=NC#N)C(C)(C)C)cc1OC` (stereo not given), the melting point lay in the range of 164 to 165 °C.

Compound `COc1c(F)c(F)c(C(=O)c2c(F)c(F)c(F)c(F)c2F)c(OC)c1F` returned a melting point of 49 to 50 °C.

For `Clc1c(I)c(Cl)c(I)c(Cl)c1I`, the melting point is more than 300 °C.

Turning to `CCCc1c(C(=O)NCc2ccc3cc(OCC(=O)O)ccc3c2)cnn1-c1ccc(Cl)cc1`, the melting point was 203 to 204 °C.

The compound `Clc1nn2c(-c3ccccc3Br)nnc2c2ccccc12` returned a melting point of 203 °C.

Turning to `Oc1ccc(-c2cc3cc(O)ccc3o2)cc1`, the melting point is 218 to 222 °C.

As for `O=C(O)CNC=C(Nc1cc(Cl)cc(Cl)c1)[N+](=O)[O-]`, the melting point was 207 °C.

As for `C=CCCn1cc([N+](=O)[O-])nc1Br`, the melting point fell in the range of 28 to 30 °C.

With `CC1(C)OC(=O)C(Oc2ccc(Br)cc2)=C1c1ccc(S(C)(=O)=O)cc1`, the melting point lay in the range of 150 to 152 °C.

On to `CN(C)c1ccc(C(=O)CCCN2CCC(=C(c3ccccc3)c3ccccc3)CC2)cc1`, for which the melting point was 110 to 112 °C.

Take `COC(=O)c1ccc(NC2CC2)c(S(N)(=O)=O)c1`: the melting point lay in the range of 158 to 161 °C.

The compound `CC(C)OC(=O)c1ccc(Cl)cc1S(N)(=O)=O` gave a melting point of 140 to 142 °C.

The compound `O=c1ccc(Oc2ccccc2)n[nH]1` showed a melting point of 148 °C.

In turn, `CCOC(=O)c1cnoc1-c1ccc(F)c(Cl)c1` returned a melting point of 106 to 107 °C.

Compound `CC(C)c1ccc2c(c1)c(-c1ccccc1Cl)c(NC(=O)Nc1ccc(F)cc1F)c(=O)n2C` gave a melting point of 152 to 156 °C.

The compound `N#CC1NC(CO)C(O)C(O)C1O` (stereo not given) had a melting point of 143 °C.

Compound `CCOC(=O)CCc1ccc(C(=O)c2ccc(Cl)cc2)n1C` displayed a melting point of 71.5 to 73 °C.

Compound `Sc1nnc2c3ccccc3cnn12` displayed a melting point of 270 to 280 °C.

The compound `CCOc1nn(Cc2ccc(OCc3cn4c(Cl)cccc4n3)cc2)cc1CCC(=O)O` came in with a melting point of 153 to 154 °C.

Take `CCOC(=O)N1CCN(C2=C(O)C(=O)c3ccccc3C2=O)CC1`: the melting point fell in the range of 115 to 118 °C.

`CCCCc1c(C=O)ccc2c(OC)cccc12` had a melting point of 61.5 to 62.5 °C.

`CCOP(=O)(/C=C/c1cn(-c2ccccc2)nc1OCc1ccc(OCc2nc(N3CCOCC3)sc2C)c(OC)c1)OCC` displayed a melting point of 88 to 90 °C.

Consider `Clc1cc2c(cc1Cn1ccnc1-c1ccccc1)OCO2`, for which the melting point amounted to 163 °C.

In turn, `CN1CCCc2cc(OC(=O)Nc3ccc(Cl)c(C(F)(F)F)c3)ccc21` yielded a melting point of 152 °C.

With `Cc1ccccc1C(=O)Nc1ccc(C(=O)N2Cc3ccnn3Cc3ccccc32)c(Cl)c1`, the melting point was in the range of 241 to 244 °C.

On to `CNc1nnc(-c2ccc3occ(-c4ccc(S(C)=O)cc4)c3c2)o1` (stereo not given), for which the melting point lay in the range of 240 to 241 °C.
